The record followed here is article PMC10301603, “Potent and Selective Benzothiazole-Based Antimitotics with Improved Water Solubility: Design, Synthesis, and Evaluation as Novel Anticancer Agents” (Pharmaceutics, 2023).

SMILES strings stand for the structures.

The subject of one assay is bovine brain tubulin. Kind of assay: Tubulin polymerization inhibition (turbidimetry). Type of assay: biochemical. Particulars: for % TPI: compounds tested at 10 µM, with respect to the negative control; for IC50: concentration inhibiting 50% of microtubular protein polymerization in vitro, read-out: TPI IC50. In a few lines: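 Turbidimetric assay using calf-brain microtubular protein: polymerization started by a shift from 4 °C to 37 °C and followed by absorbance at 450 nm. Percent inhibition calculated against a ligand-free control; IC50 determined only for compounds giving >50% inhibition at 10 µM. Triplicates in two independent experiments using separate protein preparations.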

The next assay deals with U87MG cells. The assay can be described thus: Lactate dehydrogenase (LDH) release assay. Type of assay: cell-based, human. Particulars: 72 h. As to the method:
CytoTox96® Non-Radioactive Cytotoxicity Assay kit (Promega, Madison, WI, USA) was used to measure the release of lactate dehydrogenase (LDH) by following the previously described method in [46]. Briefly, U87 MG or HEK-293 cells were incubated for 72 h with compounds 8, 9, or 14 at concentrations ranging from 10^−9 to 10^−6 M for U87 MG cells, and from 10^−4 to 10^−3 M for HEK-293 cells. After treatment, the supernatants were collected, and the intact attached cells were lysed using 0.1% (w/v) Triton X-100 in (0.9%) NaCl solution. Both the LDH released to culture media, as well as the LDH content within the cells, were determined spectrophotometrically at 490 nm on a 96-well plate reader (Infinite 200, Tecan, Salzburg, Austria) by following the manufacturer’s instructions. LDH release was defined by the ratio of LDH released/total LDH present in the cells, with the total LDH being 100%. All the samples were run in quadruplicate.

A further assay has as its system HeLa cells. Kind of assay: Cell cycle analysis (PI, flow cytometry). Particulars: 8 and 14 200 nM, 9 500 nM. The assay is classed as cell-based, human. As to the method:
(§1) An amount of 8 × 10^4 cells/mL (HeLa, MCF7, or U87 MG cells) were seeded in 6-well plates (2 mL/well) and incubated in complete DMEM medium (see above) at 37 °C and 5% CO2 atmosphere for 24 h. Then, the medium was replaced with fresh complete DMEM in the presence or absence of the selected compounds (8, 9, and 14). The concentration of the compounds was selected according to their IC50 value for the antiproliferative activity in each cell line (see above, Section 2.4.4). HeLa cells were treated with 200 nM of compounds 8 and 14 and 500 nM of compound 9; MCF7 cells were treated with 100 nM of compounds 8 and 14 and 500 nM of compound 9; and U87 MG cells were treated with 50 nM of compound 8 and 100 nM of compounds 9 and 14. Untreated cells were used as negative controls. Cells were harvested 24, 48, or 72 h following treatment and fixed in ice-cold ethanol/PBS (7:3) overnight. Cells were then washed twice with PBS, suspended in PBS, and incubated overnight in darkness with 0.2 mg/mL RNase A (Sigma-Aldrich, St. Louis, MO, USA), 50 µg/mL propidium iodide (Sigma-Aldrich, St. Louis, MO, USA), and Triton 10× at room temperature. BD Accuri™ C6 Plus Flow Cytometer (BD Biosciences) was used to analyze samples, and BD Accuri™ C6 Software (version 1.0.264.21) was used for data analysis.
On the technique in general: In flow cytometry, cells or beads pass a laser one at a time.

A further assay deals with MCF7 cells. The assay can be described thus: Cell cycle analysis (PI, flow cytometry). Particulars: 8 and 14 100 nM, 9 500 nM. The assay is classed as cell-based, human. As to the method:
as §1

By IC50 is commonly meant the concentration at which inhibition is half-maximal. On to `CCNC(=O)N(Cc1cccnc1)c1nc2ccc(OC)cc2s1` [Compound 8], for which the “% TPI” value in the assay with bovine brain tubulin was 100%. Besides, the IC50 in the assay on bovine brain tubulin came out at 2.9 µM. The LDH release is recorded as around 40% in the assay with U87MG cells (1 nM), “over 60%” with U87MG cells (10 nM) and 100% in the assay on U87MG cells (100 nM). In addition, the G2/M population with HeLa cells (24 h) is listed as 80%; in the assay with HeLa cells (48 h), 58%; in the assay with MCF7 cells (MCF7, 24 h), 32%. The entries for the “sub G0/G1 population” value in the assay on HeLa cells (48 h) and in the assay with HeLa cells (72 h) were 14–18% and 52%, respectively. Besides, the SubG0/G1 population is recorded as 9% in the assay with MCF7 cells (MCF7, 48 h) and 26% with MCF7 cells (MCF7, 72 h).
Regarding `COc1ccc2nc(N(C=O)Cc3cccnc3)sc2c1` [Compound 14, N-(6-methoxybenzo[d]thiazol-2-yl)-N-(pyridin-3-ylmethyl)formamide], the “% TPI” value in the assay with bovine brain tubulin came to 87%. Besides, in the assay on bovine brain tubulin, the IC50 is 4.1 µM. Also, the LDH release result is given as “around 10%” with U87MG cells (1 nM) and around 20% in the assay on U87MG cells (10 nM). The “cell death (LDH release)” value in the assay with U87MG cells (above 100 nM) is 100%. The G2/M population with HeLa cells (24 h) is recorded as 56%; in the assay on HeLa cells (48 h), 60%; in the assay with MCF7 cells (MCF7, 24 h), 40%; with MCF7 cells (MCF7, 48 h), 30–35%; in the assay with MCF7 cells (MCF7, 72 h), 30–35%. In addition, the “sub G0/G1 population” value is 14–18% with HeLa cells (48 h) and 43% in the assay on HeLa cells (72 h). Moreover, the SubG0/G1 population is listed as 27% in the assay with MCF7 cells (MCF7, 48 h) and 33% in the assay on MCF7 cells (MCF7, 72 h).
